Reference: publication PMC7413254 (Nature Communications, 2020)
“And” between values parts separate entries of the source, which are not always exact repeats. Equal entries are not always repeated. Where two headings read alike, the source gives them in different places. Where no end group is shown, it is not given here.

How the values were obtained:
[1] = tested on: PfCRT; test: Influx of VF-6 via PfCRT into the oocyte, solutes tested as potential co-substrates; assay type: cell-based, Plasmodium falciparum; set-up: key: X: Compounds that have been tested as potential co-substrates but are not required for influx of VF-6 via PfCRT into the oocyte; conditions: X marks the solute
[2] = target: PfCRT^3D7 (Plasmodium falciparum, UniProt Q8IBZ9); test: cell-based
Method: (§1) The characterisation of [^3H]VF-6 transport via 23 different field and laboratory-derived isoforms of PfCRT was undertaken with oocytes two days post-cRNA-injection (Figs. 3a–j, 4; Supplementary Fig. 2). The oocytes were injected with 25 nL of ND96 buffer (pH 5.5) supplemented with [^3H]VF-6 and unlabelled VF-6 to achieve estimated intracellular concentrations of 1.4 and 200 μM, respectively. Ten oocytes that had resealed at the injection site were transferred to a 5 mL polystyrene round bottom tube (In Vitro Technologies) and washed with 3.5 mL of ND96 buffer before being transferred to separate wells of a white 96-well plate (PerkinElmer). This treatment served to establish the amount of radioactivity within the oocytes immediately prior to the commencement of the transport assay. Another 10 resealed oocytes were transferred to a 5 mL tube and washed with 3.5 mL of ND96 buffer. […] The assay was terminated by removing the reaction buffer with a pipette and washing the oocytes twice with 3.5 mL of ice-cold ND96 buffer. Each oocyte was transferred to a separate well of a white 96-well plate. The oocytes were lysed by the addition of 20 μL of 10% (w/v) SDS and overnight incubation at room temperature. The lysed oocyte was then combined with 150 μL of MicroScint-40 microscintillant (PerkinElmer), the plate covered with a TopSeal-A (PerkinElmer), and the radioactivity measured with a MicroBeta^2 microplate liquid scintillation analyser (PerkinElmer). VF-6 transport was calculated by subtracting the amount of radioactivity (measured in counts per minute) present within the oocytes at the end of the incubation from that measured in the oocytes sampled immediately before the commencement of the assay. The pH-dependence of transport (Fig. 3c) was determined by injecting the oocytes with [^3H]VF-6 suspended in 25 nL ND96 buffer adjusted to pH 5.0, 5.5, 6.0 or 7.0, which corresponded to the injection of 2.5–250 fmol of H^+. The dependence of [^3H]VF-6 transport on Na^+ or Cl^− was examined by injecting the oocytes with [^3H]VF-6 suspended in the control ND96 buffer (pH 5.5) or a version of this buffer that lacked either Na^+ or Cl^− (Supplementary Fig. 2). […] The dependence of peptide transport on Ca^2+ was determined by injecting the oocytes with [^3H]VF-6 suspended in ND96 buffers that contained different concentrations of Ca^2+ (0–5 mM; Supplementary Fig. 2). […] The dependence of PfCRT-mediated transport on the membrane potential was examined by using (1) Na^+ ionophore III in conjunction with the Na^+ gradients listed in Supplementary Data 7 and (2) Cl^− ionophore III in conjunction with the Cl^− gradients listed in Supplementary Data 7 to clamp the membrane potential of the oocyte from −80 to +80 mV. […] The kinetic parameters for VF-6 transport via different isoforms of PfCRT (Figs. 3e and 4a) were determined in SigmaPlot Windows Version 11.0 by a least-squares fit of the Michaelis–Menten equation to the data.
(§2) A subset of assays measured the ability of solutes known to interact with PfCRT to either cis-inhibit, trans-inhibit or trans-stimulate [^3H]VF-6 transport. These experiments involved adding these solutes to either the cis- or trans-side of the membrane relative to [^3H]VF-6. […] At least five independent experiments were performed (on different days and using oocytes from different frogs), and within each experiment measurements were made from ten oocytes per treatment.

[3] = target: PfCRT^Dd2 (Plasmodium falciparum, UniProt Q9N623, A220S/I356T/K76T/M74I/N326S/N75E/Q271E/R371I); test: cell-based; conditions: trans-inhibition, treatment 45 mM
Method: as §1, §2

[4] = target: PfCRT^Ecu1110 (Plasmodium falciparum, UniProt Q9N623, A220S/I356L/K76T/N326D); test: cell-based; conditions: trans-inhibition, treatment 45 mM
Method: as §1, §2

[5] = trans-inhibition, treatment 45 mM, Experiment 1
[6] = trans-inhibition, treatment 45 mM, Experiment 2
[7] = trans-inhibition, treatment 45 mM, Experiment 3
[8] = trans-inhibition, treatment 45 mM, Experiment 4
[9] = trans-inhibition, treatment 45 mM, Experiment 5

Chain of PfCRT^3D7 (Q8IBZ9 59-398): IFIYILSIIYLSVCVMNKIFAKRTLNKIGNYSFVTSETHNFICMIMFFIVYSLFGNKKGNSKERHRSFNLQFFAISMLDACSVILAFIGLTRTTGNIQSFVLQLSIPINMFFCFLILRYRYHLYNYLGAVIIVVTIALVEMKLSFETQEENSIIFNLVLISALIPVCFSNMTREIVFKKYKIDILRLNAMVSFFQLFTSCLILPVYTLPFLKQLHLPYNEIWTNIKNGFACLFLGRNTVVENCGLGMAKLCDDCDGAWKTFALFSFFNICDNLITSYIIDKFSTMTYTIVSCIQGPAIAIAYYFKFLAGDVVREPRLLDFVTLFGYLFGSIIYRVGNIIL
Chain of PfCRT^Ecu1110 (Q9N623 whole entry A220S/I356L/K76T/N326D): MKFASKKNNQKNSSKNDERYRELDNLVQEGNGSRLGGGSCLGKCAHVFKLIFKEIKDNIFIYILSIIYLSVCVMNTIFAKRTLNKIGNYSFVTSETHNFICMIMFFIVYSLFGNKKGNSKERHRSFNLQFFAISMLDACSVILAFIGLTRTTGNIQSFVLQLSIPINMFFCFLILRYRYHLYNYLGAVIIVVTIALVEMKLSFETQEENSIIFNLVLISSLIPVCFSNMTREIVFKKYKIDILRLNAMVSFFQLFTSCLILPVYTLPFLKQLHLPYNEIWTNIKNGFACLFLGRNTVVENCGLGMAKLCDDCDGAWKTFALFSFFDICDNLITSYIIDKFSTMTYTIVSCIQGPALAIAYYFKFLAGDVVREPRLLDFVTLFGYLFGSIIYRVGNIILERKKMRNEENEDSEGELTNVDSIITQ
Chain of PfCRT^Dd2 (Q9N623 whole entry A220S/I356T/K76T/M74I/N326S/N75E/Q271E/R371I): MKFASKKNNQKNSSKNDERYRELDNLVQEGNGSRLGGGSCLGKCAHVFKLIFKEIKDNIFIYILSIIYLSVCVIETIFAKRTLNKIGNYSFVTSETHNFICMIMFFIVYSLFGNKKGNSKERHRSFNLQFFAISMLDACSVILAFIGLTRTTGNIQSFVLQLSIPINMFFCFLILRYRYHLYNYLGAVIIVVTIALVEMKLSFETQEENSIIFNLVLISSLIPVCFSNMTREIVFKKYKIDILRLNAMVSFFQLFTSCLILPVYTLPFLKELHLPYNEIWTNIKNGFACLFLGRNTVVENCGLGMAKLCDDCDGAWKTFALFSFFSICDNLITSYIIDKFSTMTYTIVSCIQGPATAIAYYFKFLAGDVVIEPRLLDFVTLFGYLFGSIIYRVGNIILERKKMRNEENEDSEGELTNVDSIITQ

For `N[C@@H](Cc1ccc(O)cc1)C(=O)O` [L-tyrosine], the “Compounds that have been tested as potential co-substrates but are not required for influx of VF-6 via PfCRT into the oocyte” value [1] was “X”.
In the case of `CC(C)C[C@H](N)C(=O)O` [L-leucine], the “Compounds that have been tested as potential co-substrates but are not required for influx of VF-6 via PfCRT into the oocyte” value [1] is reported as “X”.
With `N[C@@H](Cc1c[nH]c2ccccc12)C(=O)O` [L-tryptophan] the “Compounds that have been tested as potential co-substrates but are not required for influx of VF-6 via PfCRT into the oocyte” value [1] was “X”.
In the case of `CSCC[C@H](N)C(=O)O` [L-methionine], the “Compounds that have been tested as potential co-substrates but are not required for influx of VF-6 via PfCRT into the oocyte” value [1] is reported as “X”.
For `N[C@@H](CCC(=O)O)C(=O)O` [L-glutamic acid], the “Compounds that have been tested as potential co-substrates but are not required for influx of VF-6 via PfCRT into the oocyte” value [1] was “X”.
With DPVN [VF-6-derived peptide] the “[3H]VF-6 transport, PfCRT3D7 (% PfCRT3D7 control)” value [2] was 26.43 % PfCRT3D7 control and 27.43 % PfCRT3D7 control and 23.23 % PfCRT3D7 control and 20.32 % PfCRT3D7 control and 20.85 % PfCRT3D7 control, the “[3H]VF-6 transport, PfCRTDd2 (% PfCRT3D7 control)” value ([3]; Experiment 1) was 7.83 % PfCRT3D7 control and the “[3H]VF-6 transport, PfCRTDd2 (% PfCRT3D7 control)” value ([3]; Experiment 2) was 7.93 % PfCRT3D7 control. The “[3H]VF-6 transport, PfCRTDd2 (% PfCRT3D7 control)” value ([3]; Experiment 3) was 7.34 % PfCRT3D7 control, the “[3H]VF-6 transport, PfCRTDd2 (% PfCRT3D7 control)” value ([3]; Experiment 4) was 7.75 % PfCRT3D7 control and the “[3H]VF-6 transport, PfCRTDd2 (% PfCRT3D7 control)” value ([3]; Experiment 5) was 8.53 % PfCRT3D7 control. For the same compound, the “[3H]VF-6 transport, PfCRTEcu1110 (% PfCRT3D7 control)” value ([4]; Experiment 1) was 9.56 % PfCRT3D7 control, the “[3H]VF-6 transport, PfCRTEcu1110 (% PfCRT3D7 control)” value ([4]; Experiment 2) was 9.46 % PfCRT3D7 control and the “[3H]VF-6 transport, PfCRTEcu1110 (% PfCRT3D7 control)” value ([4]; Experiment 3) was 8.39 % PfCRT3D7 control. For the same compound, the “[3H]VF-6 transport, PfCRTEcu1110 (% PfCRT3D7 control)” value ([4]; Experiment 4) was 9.45 % PfCRT3D7 control and the “[3H]VF-6 transport, PfCRTEcu1110 (% PfCRT3D7 control)” value ([4]; Experiment 5) was 9.93 % PfCRT3D7 control.
In the case of `NC(=O)C[C@H](N)C(=O)O` [L-asparagine], the “Compounds that have been tested as potential co-substrates but are not required for influx of VF-6 via PfCRT into the oocyte” value [1] is reported as “X”.
DPVNF [VF-6-derived peptide] was tested, and the “[3H]VF-6 transport, PfCRT3D7 (% PfCRT3D7 control)” value [2, 5] was 21.64 % PfCRT3D7 control, the “[3H]VF-6 transport, PfCRT3D7 (% PfCRT3D7 control)” value [2, 6] was 22.13 % PfCRT3D7 control and the “[3H]VF-6 transport, PfCRT3D7 (% PfCRT3D7 control)” value [2, 7] was 19.38 % PfCRT3D7 control. The “[3H]VF-6 transport, PfCRT3D7 (% PfCRT3D7 control)” value [2, 8] was 18.32 % PfCRT3D7 control, the “[3H]VF-6 transport, PfCRT3D7 (% PfCRT3D7 control)” value [2, 9] was 19.24 % PfCRT3D7 control and the “[3H]VF-6 transport, PfCRTDd2 (% PfCRT3D7 control)” value ([3]; Experiment 1) was 9.35 % PfCRT3D7 control. The “[3H]VF-6 transport, PfCRTDd2 (% PfCRT3D7 control)” value ([3]; Experiment 2) was 8.35 % PfCRT3D7 control, the “[3H]VF-6 transport, PfCRTDd2 (% PfCRT3D7 control)” value ([3]; Experiment 3) was 9.55 % PfCRT3D7 control and the “[3H]VF-6 transport, PfCRTDd2 (% PfCRT3D7 control)” value ([3]; Experiment 4) was 8.26 % PfCRT3D7 control. The “[3H]VF-6 transport, PfCRTDd2 (% PfCRT3D7 control)” value ([3]; Experiment 5) was 9.66 % PfCRT3D7 control, the “[3H]VF-6 transport, PfCRTEcu1110 (% PfCRT3D7 control)” value ([4]; Experiment 1) was 7.36 % PfCRT3D7 control and the “[3H]VF-6 transport, PfCRTEcu1110 (% PfCRT3D7 control)” value ([4]; Experiment 2) was 8.38 % PfCRT3D7 control. For the same compound, the “[3H]VF-6 transport, PfCRTEcu1110 (% PfCRT3D7 control)” value ([4]; Experiment 3) was 7.23 % PfCRT3D7 control, the “[3H]VF-6 transport, PfCRTEcu1110 (% PfCRT3D7 control)” value ([4]; Experiment 4) was 8.43 % PfCRT3D7 control and the “[3H]VF-6 transport, PfCRTEcu1110 (% PfCRT3D7 control)” value ([4]; Experiment 5) was 7.77 % PfCRT3D7 control.
With VDPVNF [VF-6] the “[3H]VF-6 transport, PfCRT3D7 (% PfCRT3D7 control)” value [2, 5] was 17.84 % PfCRT3D7 control, the “[3H]VF-6 transport, PfCRT3D7 (% PfCRT3D7 control)” value [2, 6] was 18.04 % PfCRT3D7 control and the “[3H]VF-6 transport, PfCRT3D7 (% PfCRT3D7 control)” value [2, 7] was 20.27 % PfCRT3D7 control. For the same compound, the “[3H]VF-6 transport, PfCRT3D7 (% PfCRT3D7 control)” value [2, 8] was 18.57 % PfCRT3D7 control and the “[3H]VF-6 transport, PfCRT3D7 (% PfCRT3D7 control)” value [2, 9] was 17.74 % PfCRT3D7 control.
`CC(C)[C@H](N)C(=O)O` [L-valine] was tested, and the “Compounds that have been tested as potential co-substrates but are not required for influx of VF-6 via PfCRT into the oocyte” value [1] was “X”.
